Measurements reported in ChEMBL document CHEMBL3991601, “The target landscape of clinical kinase drugs” (Science, 2017).
Calls of active or inactive are those of the source. For most assays here, no stated cut-off is given here; in the data, actives have a measured Kd and inactives only a lower limit.

Legend:
[1] = target: T1, Long-chain-fatty-acid--CoA ligase 5 (Homo sapiens, UniProt Q9ULC5)
T1 sequence (Q9ULC5 whole entry): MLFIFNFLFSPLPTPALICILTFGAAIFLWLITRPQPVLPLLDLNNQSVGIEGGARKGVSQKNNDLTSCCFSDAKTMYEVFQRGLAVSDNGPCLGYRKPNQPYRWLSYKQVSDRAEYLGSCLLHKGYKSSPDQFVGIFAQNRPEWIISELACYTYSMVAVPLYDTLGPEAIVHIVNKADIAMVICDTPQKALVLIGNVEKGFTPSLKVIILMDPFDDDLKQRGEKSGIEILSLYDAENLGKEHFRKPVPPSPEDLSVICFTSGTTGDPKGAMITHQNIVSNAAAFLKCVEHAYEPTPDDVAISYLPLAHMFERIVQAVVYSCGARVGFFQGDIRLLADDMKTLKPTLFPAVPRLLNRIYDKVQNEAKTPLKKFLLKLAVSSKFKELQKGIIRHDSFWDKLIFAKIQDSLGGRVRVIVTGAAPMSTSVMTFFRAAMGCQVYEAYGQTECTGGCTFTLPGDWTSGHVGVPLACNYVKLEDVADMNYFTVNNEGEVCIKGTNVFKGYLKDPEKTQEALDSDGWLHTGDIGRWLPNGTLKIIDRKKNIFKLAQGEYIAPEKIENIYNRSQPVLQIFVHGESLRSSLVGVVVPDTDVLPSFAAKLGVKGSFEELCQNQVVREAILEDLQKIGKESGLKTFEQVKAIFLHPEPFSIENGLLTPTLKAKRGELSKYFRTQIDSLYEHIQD

[2] = target: T2, Breakpoint cluster region protein (Homo sapiens, UniProt P11274)
T2 sequence (P11274 whole entry): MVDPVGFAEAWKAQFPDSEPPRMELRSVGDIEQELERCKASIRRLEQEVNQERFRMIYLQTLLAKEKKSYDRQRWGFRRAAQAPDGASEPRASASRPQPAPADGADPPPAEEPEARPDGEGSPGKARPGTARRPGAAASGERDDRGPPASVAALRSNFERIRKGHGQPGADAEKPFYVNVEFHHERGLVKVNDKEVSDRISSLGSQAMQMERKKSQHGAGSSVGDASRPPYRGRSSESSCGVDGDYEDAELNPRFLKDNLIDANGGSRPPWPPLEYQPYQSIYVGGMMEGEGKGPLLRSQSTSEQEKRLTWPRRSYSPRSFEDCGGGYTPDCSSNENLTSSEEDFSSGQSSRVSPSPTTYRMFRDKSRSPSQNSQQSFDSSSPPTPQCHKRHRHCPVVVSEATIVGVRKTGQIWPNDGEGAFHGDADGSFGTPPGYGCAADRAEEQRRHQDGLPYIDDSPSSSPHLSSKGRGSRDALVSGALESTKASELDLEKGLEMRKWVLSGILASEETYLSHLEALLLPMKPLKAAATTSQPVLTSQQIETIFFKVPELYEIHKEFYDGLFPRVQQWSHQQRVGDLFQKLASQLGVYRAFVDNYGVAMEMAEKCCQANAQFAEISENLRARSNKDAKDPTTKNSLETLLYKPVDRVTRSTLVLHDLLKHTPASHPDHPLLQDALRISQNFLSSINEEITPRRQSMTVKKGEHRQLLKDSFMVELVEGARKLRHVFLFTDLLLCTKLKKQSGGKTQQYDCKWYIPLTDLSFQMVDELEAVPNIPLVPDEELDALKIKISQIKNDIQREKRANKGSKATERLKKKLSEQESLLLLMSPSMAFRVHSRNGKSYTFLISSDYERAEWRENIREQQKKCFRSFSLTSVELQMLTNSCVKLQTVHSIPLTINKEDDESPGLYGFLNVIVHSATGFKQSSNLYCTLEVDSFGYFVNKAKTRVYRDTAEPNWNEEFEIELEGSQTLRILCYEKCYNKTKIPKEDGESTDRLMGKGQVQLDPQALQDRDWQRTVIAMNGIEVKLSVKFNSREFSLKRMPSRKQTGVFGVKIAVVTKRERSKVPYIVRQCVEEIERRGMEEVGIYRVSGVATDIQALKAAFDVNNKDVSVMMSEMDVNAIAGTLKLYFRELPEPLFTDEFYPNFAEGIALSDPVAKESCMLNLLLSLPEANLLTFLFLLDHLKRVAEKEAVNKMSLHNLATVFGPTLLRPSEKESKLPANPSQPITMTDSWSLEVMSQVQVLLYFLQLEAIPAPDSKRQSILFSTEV

[3] = target: Tyrosine-protein kinase Lyn (Homo sapiens, UniProt P07948)
[4] = target: cAMP-dependent protein kinase catalytic subunit gamma (Homo sapiens, UniProt P22612)
[5] = target: Protein kinase C alpha type (Homo sapiens, UniProt P17252)
[6] = target: T3, Ras-related protein Rab-10 (Homo sapiens, UniProt P61026)
T3 sequence (P61026 whole entry): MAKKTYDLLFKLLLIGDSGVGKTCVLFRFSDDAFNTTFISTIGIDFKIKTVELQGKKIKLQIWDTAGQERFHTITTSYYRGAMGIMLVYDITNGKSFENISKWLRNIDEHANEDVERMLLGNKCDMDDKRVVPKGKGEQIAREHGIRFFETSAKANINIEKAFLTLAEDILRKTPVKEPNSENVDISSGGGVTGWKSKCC

[7] = target: Mitogen-activated protein kinase kinase kinase 20 (Homo sapiens, UniProt Q9NYL2)
Chain of Mitogen-activated protein kinase kinase kinase 20 (Q9NYL2 whole entry): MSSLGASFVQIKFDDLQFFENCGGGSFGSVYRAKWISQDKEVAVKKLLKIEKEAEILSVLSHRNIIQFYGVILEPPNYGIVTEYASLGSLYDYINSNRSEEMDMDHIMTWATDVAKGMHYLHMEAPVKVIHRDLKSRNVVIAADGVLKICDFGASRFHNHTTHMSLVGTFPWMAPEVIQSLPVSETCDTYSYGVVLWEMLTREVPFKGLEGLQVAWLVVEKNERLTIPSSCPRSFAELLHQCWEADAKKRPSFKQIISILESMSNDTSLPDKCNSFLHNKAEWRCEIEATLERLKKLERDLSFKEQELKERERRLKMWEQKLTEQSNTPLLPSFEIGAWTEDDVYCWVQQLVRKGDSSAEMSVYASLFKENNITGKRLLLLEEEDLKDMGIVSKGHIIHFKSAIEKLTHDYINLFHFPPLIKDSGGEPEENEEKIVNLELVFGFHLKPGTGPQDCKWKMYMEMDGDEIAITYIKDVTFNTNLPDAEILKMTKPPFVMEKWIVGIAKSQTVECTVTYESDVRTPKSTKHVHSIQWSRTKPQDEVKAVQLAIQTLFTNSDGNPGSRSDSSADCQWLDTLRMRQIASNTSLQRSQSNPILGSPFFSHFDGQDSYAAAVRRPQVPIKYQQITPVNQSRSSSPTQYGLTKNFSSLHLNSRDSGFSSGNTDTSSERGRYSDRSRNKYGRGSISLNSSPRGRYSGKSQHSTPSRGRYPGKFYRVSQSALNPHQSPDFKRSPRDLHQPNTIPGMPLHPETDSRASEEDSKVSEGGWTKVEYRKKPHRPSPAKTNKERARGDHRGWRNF

Chain of cAMP-dependent protein kinase catalytic subunit gamma (P22612 whole entry): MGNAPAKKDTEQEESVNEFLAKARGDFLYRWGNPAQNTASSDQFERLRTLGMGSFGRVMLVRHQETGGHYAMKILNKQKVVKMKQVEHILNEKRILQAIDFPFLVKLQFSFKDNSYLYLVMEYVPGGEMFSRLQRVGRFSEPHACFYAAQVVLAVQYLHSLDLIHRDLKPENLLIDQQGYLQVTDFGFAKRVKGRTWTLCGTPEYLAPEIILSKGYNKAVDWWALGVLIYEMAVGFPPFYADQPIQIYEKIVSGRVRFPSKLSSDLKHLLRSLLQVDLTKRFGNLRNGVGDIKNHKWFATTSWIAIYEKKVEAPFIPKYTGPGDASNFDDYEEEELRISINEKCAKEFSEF
Chain of Tyrosine-protein kinase Lyn (P07948 whole entry): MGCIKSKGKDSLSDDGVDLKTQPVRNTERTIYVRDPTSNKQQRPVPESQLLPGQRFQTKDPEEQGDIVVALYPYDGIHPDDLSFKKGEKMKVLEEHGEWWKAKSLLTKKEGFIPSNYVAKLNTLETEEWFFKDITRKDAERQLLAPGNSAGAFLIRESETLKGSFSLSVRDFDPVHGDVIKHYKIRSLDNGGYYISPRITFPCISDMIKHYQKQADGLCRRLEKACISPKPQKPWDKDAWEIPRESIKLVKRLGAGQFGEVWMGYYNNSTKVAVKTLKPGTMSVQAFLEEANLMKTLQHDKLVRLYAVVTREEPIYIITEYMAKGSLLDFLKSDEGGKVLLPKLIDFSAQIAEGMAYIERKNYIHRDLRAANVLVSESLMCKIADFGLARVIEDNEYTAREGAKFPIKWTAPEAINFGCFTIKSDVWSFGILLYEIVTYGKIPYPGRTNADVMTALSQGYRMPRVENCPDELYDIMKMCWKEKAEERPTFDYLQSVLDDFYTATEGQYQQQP

COc1cc2ncnc3c2cc1OCCCCCN(C)Cc1ccc(Br)cc1N3 [JNJ-26483327]
Kd [1]: > 30 µM (inactive)
Kd [2]: > 30 µM (inactive)
Kd [3]: > 30 µM (inactive)
Kd [4]: > 30 µM (inactive)
Kd [5]: > 30 µM (inactive)
Kd [6]: > 30 µM (inactive)
Kd [7]: > 30 µM (inactive)

Cc1cc(C(=O)Nc2cc(Oc3ccc4nc(NC(=O)C5CC5)cn4n3)ccc2C)n(C)n1 [TAK-593]
Kd [1]: > 30 µM (inactive)
Kd [2]: 0.035 µM (active)
Kd [3]: > 30 µM (inactive)
Kd [4]: > 30 µM (inactive)
Kd [5]: > 30 µM (inactive)
Kd [6]: > 30 µM (inactive)
Kd [7]: > 30 µM (inactive)

COc1cc2ncnc(Nc3ccc(O)cc3)c2cc1OC [WHI-P131]
Kd [1]: > 30 µM (inactive)
Kd [2]: > 30 µM (inactive)
Kd [3]: > 30 µM (inactive)
Kd [4]: > 30 µM (inactive)
Kd [5]: > 30 µM (inactive)
Kd [6]: > 30 µM (inactive)
Kd [7]: > 30 µM (inactive)

CN(c1ncccc1CNc1nc(Nc2ccc3c(c2)CC(=O)N3)ncc1C(F)(F)F)S(C)(=O)=O [PF-00562271]
Kd [1]: > 30 µM (inactive)
Kd [2]: > 30 µM (inactive)
Kd [4]: > 30 µM (inactive)
Kd [5]: > 30 µM (inactive)
Kd [6]: > 30 µM (inactive)

O[C@H]1CC[C@H](Nc2ncc3nc(Nc4c(F)cc(F)cc4F)n([C@H]4CCOC4)c3n2)CC1 [TANZISERTIB]
Kd [1]: > 30 µM (inactive)
Kd [2]: > 30 µM (inactive)
Kd [3]: > 30 µM (inactive)
Kd [4]: > 30 µM (inactive)
Kd [5]: > 30 µM (inactive)
Kd [6]: > 30 µM (inactive)
Kd [7]: > 30 µM (inactive)

Cn1c(=O)n(-c2ccc(C(C)(C)C#N)cc2)c2c3cc(-c4cnc5ccccc5c4)ccc3ncc21 [DACTOLISIB]
Kd [1]: > 30 µM (inactive)
Kd [2]: > 30 µM (inactive)
Kd [3]: > 30 µM (inactive)
Kd [4]: > 30 µM (inactive)
Kd [5]: > 30 µM (inactive)
Kd [6]: > 30 µM (inactive)
Kd [7]: > 30 µM (inactive)

CN1CCN(c2nc(C3=C(c4c[nH]c5ccccc45)C(=O)NC3=O)c3ccccc3n2)CC1 [SOTRASTAURIN]
Kd [1]: > 30 µM (inactive)
Kd [2]: > 30 µM (inactive)
Kd [3]: > 30 µM (inactive)
Kd [4]: > 30 µM (inactive)
Kd [6]: > 30 µM (inactive)
Kd [7]: > 30 µM (inactive)

CCOc1ccn(-c2ccc(F)cc2)c(=O)c1C(=O)Nc1ccc(Oc2ccnc(N)c2Cl)c(F)c1 [BMS-777607]
Kd [1]: > 30 µM (inactive)
Kd [2]: > 30 µM (inactive)
Kd [3]: > 30 µM (inactive)
Kd [4]: > 30 µM (inactive)
Kd [5]: > 30 µM (inactive)
Kd [7]: > 30 µM (inactive)

CC1(COc2ccc3c(c2)ncn3-c2ccc3cccc(N4CCC(N)CC4)c3n2)COC1 [CRENOLANIB]
Kd [1]: > 30 µM (inactive)
Kd [2]: > 30 µM (inactive)
Kd [3]: > 30 µM (inactive)
Kd [4]: > 30 µM (inactive)
Kd [5]: > 30 µM (inactive)
Kd [6]: > 30 µM (inactive)
Kd [7]: > 30 µM (inactive)

COc1cc2c(N3CCN(C(=O)Nc4ccc(OC(C)C)cc4)CC3)ncnc2cc1OCCCN1CCCCC1 [TANDUTINIB]
Kd [1]: > 30 µM (inactive)
Kd [4]: > 30 µM (inactive)
Kd [5]: > 30 µM (inactive)
Kd [6]: > 30 µM (inactive)

CN(C)C/C=C/C(=O)Nc1cc2c(Nc3ccc(F)c(Cl)c3)ncnc2cc1O[C@H]1CCOC1 [AFATINIB]
Kd [1]: > 30 µM (inactive)
Kd [2]: > 30 µM (inactive)
Kd [4]: > 30 µM (inactive)
Kd [5]: > 30 µM (inactive)
Kd [6]: > 30 µM (inactive)

CCc1nc(C(N)=O)c(Nc2ccc(N3CCC(N4CCN(C)CC4)CC3)c(OC)c2)nc1NC1CCOCC1 [GILTERITINIB]
Kd [1]: 0.208 µM
Kd [2]: > 30 µM (inactive)
Kd [3]: > 30 µM (inactive)
Kd [4]: > 30 µM (inactive)
Kd [6]: > 30 µM (inactive)
Kd [7]: > 30 µM (inactive)

NC[C@@](O)(c1ccc(Cl)cc1)c1ccc(-c2cn[nH]c2)cc1 [AT-13148]
Kd [1]: > 30 µM (inactive)
Kd [2]: > 30 µM (inactive)
Kd [3]: > 30 µM (inactive)
Kd [5]: > 30 µM (inactive)
Kd [6]: > 30 µM (inactive)
Kd [7]: > 30 µM (inactive)

O=S(=O)(c1cccc2c(O)nccc12)N1CCCNCC1 [HYDROXYFASUDIL]
Kd [1]: > 30 µM (inactive)
Kd [2]: > 30 µM (inactive)
Kd [3]: > 30 µM (inactive)
Kd [4]: > 30 µM (inactive)
Kd [6]: > 30 µM (inactive)
Kd [7]: > 30 µM (inactive)
